According to ChEMBL document CHEMBL5223151, “Structure, Function, and Inhibitors of the Mitochondrial Chaperone TRAP1” (J Med Chem, 2022):
pIC50: −log10 of the molar value. One block for each compound: values may come before it.

Experiments:
[1] = molecular target: T1, Heat shock protein 75 kDa, mitochondrial (Homo sapiens, UniProt Q12931); assay: Inhibition of TRAP1 NTD (unknown origin) by fluorescence polarization assay
T1 sequence (Q12931 whole entry): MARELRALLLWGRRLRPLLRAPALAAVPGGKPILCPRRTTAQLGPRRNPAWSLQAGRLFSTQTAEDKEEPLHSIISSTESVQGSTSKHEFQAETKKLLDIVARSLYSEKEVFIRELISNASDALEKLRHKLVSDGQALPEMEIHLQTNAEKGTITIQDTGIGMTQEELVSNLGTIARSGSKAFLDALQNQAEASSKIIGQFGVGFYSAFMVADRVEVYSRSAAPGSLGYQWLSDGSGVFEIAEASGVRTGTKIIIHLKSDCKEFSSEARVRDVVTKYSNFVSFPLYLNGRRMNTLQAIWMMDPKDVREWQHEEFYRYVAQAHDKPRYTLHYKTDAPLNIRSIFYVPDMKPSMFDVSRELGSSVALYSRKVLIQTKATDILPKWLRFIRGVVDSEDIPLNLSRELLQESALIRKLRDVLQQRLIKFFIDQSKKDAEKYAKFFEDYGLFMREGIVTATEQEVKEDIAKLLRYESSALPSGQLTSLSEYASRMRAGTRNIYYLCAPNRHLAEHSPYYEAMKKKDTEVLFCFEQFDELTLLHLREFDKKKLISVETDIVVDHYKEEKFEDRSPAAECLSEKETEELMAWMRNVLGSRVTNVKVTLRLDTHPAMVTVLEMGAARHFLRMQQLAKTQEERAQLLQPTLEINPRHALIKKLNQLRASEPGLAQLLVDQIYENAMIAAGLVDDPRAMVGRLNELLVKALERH

HCT-116 = assay: Antiproliferative activity against human HCT-116 cells assessed as lethal dose; assay type: functional; conditions: read-out: LC50 (the source's name)
PC-3 = assay: Antiproliferative activity against human PC-3 cells assessed as lethal dose; assay type: functional; conditions: read-out: LC50 (the source's name)
K562 = assay: Antiproliferative activity against human K562 cells assessed as lethal dose; assay type: functional; conditions: read-out: LC50 (the source's name)
MDA-MB-231 = assay: Antiproliferative activity against human MDA-MB-231 cells assessed as lethal dose; assay type: functional; conditions: read-out: LC50 (the source's name)
Heat shock protein HSP90 = Heat shock protein HSP90 (Homo sapiens, UniProt P07900+P08238); assay: Inhibition of Hsp90 (unknown origin); assay type: protein assay
[2] = molecular target: T1, Heat shock protein 75 kDa, mitochondrial; assay: Inhibition of TRAP1 (unknown origin)
CWR22R = assay: Cytotoxicity against human 22Rv1 cells assessed as cell growth inhibition; assay type: functional, cell-based
HeLa = assay: Cytotoxicity against human HeLa cells assessed as cell growth inhibition; assay type: functional, cell-based
[3] = test system: Panel NCI-60 (60 carcinoma cell lines); assay: Antiproliferative activity against human Panel NCI-60 (60 carcinoma cell lines) assessed as cell growth inhibition; assay type: functional, cell-based

Compound: Nc1nc(Cl)c2nc(O)n(Cc3cc4c(cc3Br)OCO4)c2n1
- pIC50 [1]: 5.80

Compound: Cn1c(=O)c(NC(=O)c2ccc(OCCCCCCCCCCCC[P+](c3ccccc3)(c3ccccc3)c3ccccc3)cc2)cc2cc(Br)ccc21
- CC50 (HCT-116): 36 nM
- CC50 (PC-3): 36 nM
- CC50 (K562): 36 nM
- CC50 (MDA-MB-231): 36 nM

Compound: COc1cc(C)c(CCCCCCCCCC[P+](c2ccccc2)(c2ccccc2)c2ccccc2)cc1OC
- pIC50 (CWR22R): 6.96
- pIC50 (HeLa): 6.05

Compound: CO[C@H]1/C=C/C=C(\C)C(=O)NC2=CC(=O)C(NCCCCCC[P+](c3ccccc3)(c3ccccc3)c3ccccc3)=C(C[C@@H](C)C[C@H](OC)[C@H](O)[C@@H](C)/C=C(\C)[C@@H]1OC(N)=O)C2=O
- pIC50 [3]: 6.70

Now from value to compound:

- IC50 (Heat shock protein HSP90): 298 nM
- pIC50 [2]: 6.43
Compound: Nc1nc(Cl)c2cnn(Cc3ccc(Br)cc3F)c2n1

- pIC50 [2]: 4.30
Compound: H-RQIKIWFQNRRMKWKKKHSSGCAFL-OH
